Literature values as cited in patent publication US20070224216A1, “Methods and Compositions Related to Antiviral Therapy Using Algae and Cyanobacteria” (priority 2004, published 2007).

Row | Substance | toxicity to uninfected cells (uninfected cells) | plasma concentrations after oral administration (rat, in vivo, po) | thrombosis in the rat jugular vein model (rats, oral)
1 | calcium spirulan | No toxicity | – | –
2 | heparin [oral heparins] | – | less than 1% | reduction of thrombosis
